Data: patent publication US20030072828A1, “Natural therapeutic composition for the treatment of wounds and sores” (priority 2001, published 2003)

Legend:
[1] = Personal experience: component topically applied to scalds; format: in vivo
Text: (§1) From personal experience we have discovered the following traits associated with the specific components of the invention: […]

[2] = Personal experience: general traits of components; conditions: from personal experience
Text: as §1

[3] = Personal experience: component topically applied to the skin of the face; format: in vivo
Text: as §1

Vitamin E
pain and healing of the wound [1]: reduced pain and improved healing of the wound

O=C1O[C@H]([C@@H](O)CO)C(O)=C1O [Vitamin C]
trait of the component [2]: combating pain and inflammation

Vitamin A
appearance of the skin [3]: improved appearance of the skin
